Measurements reported in the NIST ThermoML archive (doi:10.1016/j.jct.2011.11.004).
“And” between values parts separate entries of the source, which are not always exact repeats. Equal values may be shown once. ± gives the expanded uncertainty stated by the source.

Conditions: Liquid, Transpiration method

SMILES: CN(C)CCCN(C)C [N,N,N',N'-tetramethyl-1,3-propanediamine]
- vapor or sublimation pressure (273.5 K): 0.1509 ± 0.0059 kPa and 0.1417 ± 0.0065 kPa
- vapor or sublimation pressure (274.2 K): 0.1541 ± 0.0062 kPa
- vapor or sublimation pressure (275 K): 0.1633 ± 0.0068 kPa
- vapor or sublimation pressure (275.6 K): 0.1714 ± 0.007 kPa
- vapor or sublimation pressure (276.1 K): 0.1754 ± 0.0072 kPa
- vapor or sublimation pressure (276.6 K): 0.1837 ± 0.0078 kPa
- vapor or sublimation pressure (277.1 K): 0.191 ± 0.0078 kPa
- vapor or sublimation pressure (278.4 K): 0.2056 ± 0.0083 kPa
- vapor or sublimation pressure (279.2 K): 0.2168 ± 0.0092 kPa
- vapor or sublimation pressure (281.1 K): 0.2546 ± 0.01 kPa
- vapor or sublimation pressure (283.4 K): 0.2873 ± 0.012 kPa and 0.3004 ± 0.012 kPa
- vapor or sublimation pressure (285.8 K): 0.3528 ± 0.015 kPa
- vapor or sublimation pressure (287.6 K): 0.4012 ± 0.017 kPa
- vapor or sublimation pressure (289 K): 0.455 ± 0.019 kPa
- vapor or sublimation pressure (294.3 K): 0.6329 ± 0.025 kPa
- vapor or sublimation pressure (295.7 K): 0.6783 ± 0.027 kPa
- vapor or sublimation pressure (299.2 K): 0.8136 ± 0.033 kPa and 0.8194 ± 0.033 kPa
- vapor or sublimation pressure (300.8 K): 0.9386 ± 0.039 kPa
- vapor or sublimation pressure (304.3 K): 1.143 ± 0.046 kPa
- vapor or sublimation pressure (305.8 K): 1.227 ± 0.049 kPa and 1.226 ± 0.049 kPa
- vapor or sublimation pressure (309.1 K): 1.435 ± 0.058 kPa
- vapor or sublimation pressure (310.8 K): 1.654 ± 0.067 kPa
- vapor or sublimation pressure (310.9 K): 1.663 ± 0.068 kPa
- vapor or sublimation pressure (315.6 K): 2.117 ± 0.086 kPa and 2.069 ± 0.084 kPa and 2.116 ± 0.086 kPa
- vapor or sublimation pressure (323.1 K): 3.214 ± 0.13 kPa

SMILES: CN(C)CCCN [N,N-dimethyl-1,3-propanediamine]
- vapor or sublimation pressure (273.5 K): 0.1753 ± 0.0075 kPa
- vapor or sublimation pressure (273.8 K): 0.1802 ± 0.0078 kPa
- vapor or sublimation pressure (274.2 K): 0.1875 ± 0.0081 kPa
- vapor or sublimation pressure (275.8 K): 0.2076 ± 0.0085 kPa
- vapor or sublimation pressure (275.9 K): 0.2029 ± 0.0083 kPa
- vapor or sublimation pressure (276.4 K): 0.2181 ± 0.0093 kPa
- vapor or sublimation pressure (277.8 K): 0.2407 ± 0.011 kPa
- vapor or sublimation pressure (278.1 K): 0.2481 ± 0.011 kPa
- vapor or sublimation pressure (278.4 K): 0.2539 ± 0.011 kPa
- vapor or sublimation pressure (281.1 K): 0.2962 ± 0.015 kPa
- vapor or sublimation pressure (281.4 K): 0.3109 ± 0.016 kPa
- vapor or sublimation pressure (283.4 K): 0.3594 ± 0.015 kPa and 0.3558 ± 0.015 kPa and 0.3618 ± 0.015 kPa
- vapor or sublimation pressure (285.8 K): 0.4176 ± 0.021 kPa
- vapor or sublimation pressure (286.2 K): 0.4454 ± 0.022 kPa
- vapor or sublimation pressure (288.1 K): 0.5012 ± 0.02 kPa and 0.4936 ± 0.02 kPa
- vapor or sublimation pressure (288.7 K): 0.5167 ± 0.021 kPa
- vapor or sublimation pressure (288.8 K): 0.5086 ± 0.021 kPa
- vapor or sublimation pressure (289.2 K): 0.5356 ± 0.025 kPa and 0.538 ± 0.025 kPa
- vapor or sublimation pressure (291.7 K): 0.628 ± 0.025 kPa
- vapor or sublimation pressure (292.1 K): 0.6355 ± 0.027 kPa and 0.6539 ± 0.027 kPa
- vapor or sublimation pressure (293 K): 0.6977 ± 0.029 kPa
- vapor or sublimation pressure (294.9 K): 0.7794 ± 0.036 kPa
- vapor or sublimation pressure (295.2 K): 0.8075 ± 0.036 kPa
- vapor or sublimation pressure (296.9 K): 0.8821 ± 0.035 kPa
- vapor or sublimation pressure (297.8 K): 0.9313 ± 0.039 kPa
- vapor or sublimation pressure (298.2 K): 0.981 ± 0.04 kPa
- vapor or sublimation pressure (298.9 K): 1.011 ± 0.041 kPa
- vapor or sublimation pressure (299.7 K): 1.058 ± 0.043 kPa

SMILES: CCN(CC)CCCN [N,N-diethylpropane-1,3-diamine]
- vapor or sublimation pressure (277.2 K): 0.03765 ± 0.0016 kPa
- vapor or sublimation pressure (279.1 K): 0.04448 ± 0.0019 kPa
- vapor or sublimation pressure (280.2 K): 0.04785 ± 0.002 kPa
- vapor or sublimation pressure (283.2 K): 0.06153 ± 0.0026 kPa
- vapor or sublimation pressure (286.2 K): 0.07622 ± 0.0031 kPa
- vapor or sublimation pressure (287.7 K): 0.08442 ± 0.0036 kPa
- vapor or sublimation pressure (288.2 K): 0.09379 ± 0.0039 kPa
- vapor or sublimation pressure (289.2 K): 0.09614 ± 0.0039 kPa
- vapor or sublimation pressure (291.1 K): 0.1087 ± 0.0045 kPa and 0.1173 ± 0.0049 kPa
- vapor or sublimation pressure (292.1 K): 0.1195 ± 0.0051 kPa
- vapor or sublimation pressure (293.2 K): 0.1316 ± 0.0054 kPa
- vapor or sublimation pressure (295.2 K): 0.1494 ± 0.0061 kPa and 0.1591 ± 0.0065 kPa
- vapor or sublimation pressure (297.2 K): 0.17 ± 0.0093 kPa
- vapor or sublimation pressure (297.3 K): 0.1835 ± 0.0077 kPa and 0.1811 ± 0.0076 kPa
- vapor or sublimation pressure (297.4 K): 0.1872 ± 0.0079 kPa
- vapor or sublimation pressure (297.5 K): 0.1799 ± 0.0083 kPa
- vapor or sublimation pressure (298.2 K): 0.1935 ± 0.0078 kPa
- vapor or sublimation pressure (299.4 K): 0.2021 ± 0.0084 kPa
- vapor or sublimation pressure (299.5 K): 0.2132 ± 0.0088 kPa
- vapor or sublimation pressure (301.2 K): 0.2397 ± 0.0099 kPa
- vapor or sublimation pressure (303.1 K): 0.274 ± 0.011 kPa and 0.2527 ± 0.011 kPa
- vapor or sublimation pressure (303.3 K): 0.2637 ± 0.011 kPa
- vapor or sublimation pressure (305.1 K): 0.3138 ± 0.013 kPa

SMILES: CNCCCN [N-methyl-1,3-diaminopropane]
- vapor or sublimation pressure (276.2 K): 0.09113 ± 0.0039 kPa
- vapor or sublimation pressure (279.3 K): 0.1163 ± 0.0049 kPa
- vapor or sublimation pressure (282.3 K): 0.1481 ± 0.0062 kPa
- vapor or sublimation pressure (285.2 K): 0.1855 ± 0.0077 kPa
- vapor or sublimation pressure (288.2 K): 0.2287 ± 0.0096 kPa
- vapor or sublimation pressure (291.2 K): 0.2973 ± 0.012 kPa
- vapor or sublimation pressure (292.7 K): 0.3328 ± 0.014 kPa
- vapor or sublimation pressure (294.1 K): 0.3667 ± 0.015 kPa
- vapor or sublimation pressure (297.1 K): 0.4634 ± 0.019 kPa
- vapor or sublimation pressure (298.8 K): 0.5298 ± 0.022 kPa
- vapor or sublimation pressure (300.2 K): 0.5889 ± 0.024 kPa
- vapor or sublimation pressure (303.2 K): 0.7223 ± 0.029 kPa
